PubChem BioAssay (NCI)
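All cell lines were grown in 96-well plates and treated with compound for 48 hours. Here, GI50 denotes the concentration required for 50% inhibition of growth. The concentration for full growth arrest is given as TGI.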

Key:
Assay in all cases: NCI tumour cell line growth inhibition, 48 h
SNB-19 CNS = tested on: SNB-19 CNS
LOX IMVI melanoma = tested on: LOX IMVI melanoma
NCI-H460 lung = tested on: NCI-H460 lung
ACHN renal = tested on: ACHN renal
OVCAR-3 ovarian = tested on: OVCAR-3 ovarian
HCT-15 colon = tested on: HCT-15 colon
NCI/ADR-RES ovarian = tested on: NCI/ADR-RES ovarian
OVCAR-5 ovarian = tested on: OVCAR-5 ovarian
SK-MEL-28 melanoma = tested on: SK-MEL-28 melanoma
RXF 393 renal = tested on: RXF 393 renal
SK-MEL-5 melanoma = tested on: SK-MEL-5 melanoma
SF-268 CNS = tested on: SF-268 CNS
CAKI-1 renal = tested on: CAKI-1 renal
PC-3 prostate = tested on: PC-3 prostate
MDA-MB-435 = tested on: MDA-MB-435
UACC-62 melanoma = tested on: UACC-62 melanoma
KM12 colon = tested on: KM12 colon
COLO 205 colon = tested on: COLO 205 colon
MCF7 breast = tested on: MCF7 breast
BT-549 breast = tested on: BT-549 breast
A549 NSCLC = tested on: A549 NSCLC
786-0 renal = tested on: 786-0 renal
M14 melanoma = tested on: M14 melanoma
HCC-2998 colon = tested on: HCC-2998 colon
T-47D breast = tested on: T-47D breast
NCI-H23 lung = tested on: NCI-H23 lung
SF-295 CNS = tested on: SF-295 CNS
HOP-62 NSCLC = tested on: HOP-62 NSCLC
UACC-257 melanoma = tested on: UACC-257 melanoma
HOP-92 NSCLC = tested on: HOP-92 NSCLC
SNB-75 CNS = tested on: SNB-75 CNS
SN12C renal = tested on: SN12C renal
HT29 colon = tested on: HT29 colon
UO-31 renal = tested on: UO-31 renal
HS 578T breast = tested on: HS 578T breast
NCI-H226 lung = tested on: NCI-H226 lung
CCRF-CEM leukemia = tested on: CCRF-CEM leukemia
K-562 leukemia = tested on: K-562 leukemia
DU-145 prostate = tested on: DU-145 prostate
A498 renal = tested on: A498 renal
SF-539 CNS = tested on: SF-539 CNS
U251 CNS = tested on: U251 CNS
SW-620 colon = tested on: SW-620 colon
OVCAR-8 ovarian = tested on: OVCAR-8 ovarian
MALME-3M melanoma = tested on: MALME-3M melanoma
SR leukemia = tested on: SR leukemia
IGROV1 ovarian = tested on: IGROV1 ovarian
MOLT-4 leukemia = tested on: MOLT-4 leukemia
HL-60(TB) leukemia = tested on: HL-60(TB) leukemia
NCI-H522 lung = tested on: NCI-H522 lung
OVCAR-4 ovarian = tested on: OVCAR-4 ovarian
SK-OV-3 ovarian = tested on: SK-OV-3 ovarian
EKVX NSCLC = tested on: EKVX NSCLC
HCT-116 colon = tested on: HCT-116 colon
MDA-MB-231 breast = tested on: MDA-MB-231 breast
RPMI-8226 leukemia = tested on: RPMI-8226 leukemia
TK-10 renal = tested on: TK-10 renal

`CC(C)(C)c1n[nH]c(=S)n(/N=C/c2ccc(F)c(Oc3ccccc3)c2)c1=O` gave a GI50 (SNB-19 CNS) of 40.9 µM, a TGI (SNB-19 CNS) of over 100 µM and a GI50 (LOX IMVI melanoma) of 28.7 µM. The TGI (LOX IMVI melanoma) was 72.2 µM, the GI50 (NCI-H460 lung) was 31 µM and the TGI (NCI-H460 lung) was over 100 µM. The GI50 (ACHN renal) was 33.8 µM, the TGI (ACHN renal) was over 100 µM and the GI50 (OVCAR-3 ovarian) was 28.3 µM. The TGI (OVCAR-3 ovarian) was 95.7 µM, the GI50 (HCT-15 colon) was 37.7 µM and the TGI (HCT-15 colon) was over 100 µM. For the same molecule, the GI50 (NCI/ADR-RES ovarian) was 35.1 µM, the TGI (NCI/ADR-RES ovarian) was over 100 µM and the GI50 (OVCAR-5 ovarian) was 54.3 µM. It also gave a TGI (OVCAR-5 ovarian) of over 100 µM, a GI50 (SK-MEL-28 melanoma) of 20.7 µM and a TGI (SK-MEL-28 melanoma) of over 100 µM. For the same molecule, the GI50 (RXF 393 renal) was 38.2 µM, the TGI (RXF 393 renal) was over 100 µM and the GI50 (SK-MEL-5 melanoma) was 19.9 µM. For the same molecule, the TGI (SK-MEL-5 melanoma) was 42.4 µM, the GI50 (SF-268 CNS) was 35.9 µM and the TGI (SF-268 CNS) was over 100 µM. The GI50 (CAKI-1 renal) was 28.5 µM, the TGI (CAKI-1 renal) was 68.9 µM and the GI50 (PC-3 prostate) was 38.6 µM. The TGI (PC-3 prostate) was over 100 µM, the GI50 (MDA-MB-435) was 38 µM and the TGI (MDA-MB-435) was over 100 µM. It also gave a GI50 (UACC-62 melanoma) of 38.2 µM, a TGI (UACC-62 melanoma) of over 100 µM and a GI50 (KM12 colon) of 35.9 µM. The TGI (KM12 colon) was over 100 µM, the GI50 (COLO 205 colon) was 38.6 µM and the TGI (COLO 205 colon) was over 100 µM. It also gave a GI50 (MCF7 breast) of 40.5 µM, a TGI (MCF7 breast) of over 100 µM and a GI50 (BT-549 breast) of 34.5 µM. For the same molecule, the TGI (BT-549 breast) was 94.5 µM, the GI50 (A549 NSCLC) was 33.9 µM and the TGI (A549 NSCLC) was over 100 µM. The GI50 (786-0 renal) was 34.9 µM, the TGI (786-0 renal) was over 100 µM and the GI50 (M14 melanoma) was 42 µM. The TGI (M14 melanoma) was over 100 µM, the GI50 (HCC-2998 colon) was 33.2 µM and the TGI (HCC-2998 colon) was over 100 µM. For the same molecule, the GI50 (T-47D breast) was 55.7 µM, the TGI (T-47D breast) was over 100 µM and the GI50 (NCI-H23 lung) was 37.7 µM. The TGI (NCI-H23 lung) was over 100 µM, the GI50 (SF-295 CNS) was 15.3 µM and the TGI (SF-295 CNS) was over 100 µM. For the same molecule, the GI50 (HOP-62 NSCLC) was 90.1 µM, the TGI (HOP-62 NSCLC) was over 100 µM and the GI50 (UACC-257 melanoma) was 24.2 µM. The TGI (UACC-257 melanoma) was 68.4 µM, the GI50 (HOP-92 NSCLC) was 27.3 µM and the TGI (HOP-92 NSCLC) was over 100 µM. For the same molecule, the GI50 (SNB-75 CNS) was 32.5 µM, the TGI (SNB-75 CNS) was over 100 µM and the GI50 (SN12C renal) was 48.5 µM. For the same molecule, the TGI (SN12C renal) was over 100 µM, the GI50 (HT29 colon) was 43.4 µM and the TGI (HT29 colon) was over 100 µM. The GI50 (UO-31 renal) was 33.9 µM, the TGI (UO-31 renal) was over 100 µM and the GI50 (HS 578T breast) was 31.4 µM. The TGI (HS 578T breast) was 85.8 µM, the GI50 (NCI-H226 lung) was over 100 µM and the TGI (NCI-H226 lung) was over 100 µM. The GI50 (CCRF-CEM leukemia) was 32.7 µM, the TGI (CCRF-CEM leukemia) was over 100 µM and the GI50 (K-562 leukemia) was 42.1 µM. For the same molecule, the TGI (K-562 leukemia) was over 100 µM, the GI50 (DU-145 prostate) was 67.7 µM and the TGI (DU-145 prostate) was over 100 µM. It also gave a GI50 (A498 renal) of 27.8 µM, a TGI (A498 renal) of 69.7 µM and a GI50 (SF-539 CNS) of 43.7 µM. The TGI (SF-539 CNS) was over 100 µM, the GI50 (U251 CNS) was 39.2 µM and the TGI (U251 CNS) was over 100 µM. It also gave a GI50 (SW-620 colon) of 34.7 µM, a TGI (SW-620 colon) of over 100 µM and a GI50 (OVCAR-8 ovarian) of 25.6 µM. The TGI (OVCAR-8 ovarian) was over 100 µM, the GI50 (MALME-3M melanoma) was 28.5 µM and the TGI (MALME-3M melanoma) was 91.5 µM. It also gave a GI50 (SR leukemia) of over 100 µM, a TGI (SR leukemia) of over 100 µM and a GI50 (IGROV1 ovarian) of 35.9 µM. For the same molecule, the TGI (IGROV1 ovarian) was over 100 µM, the GI50 (MOLT-4 leukemia) was 39.8 µM and the TGI (MOLT-4 leukemia) was over 100 µM. The GI50 (HL-60(TB) leukemia) was 61.9 µM, the TGI (HL-60(TB) leukemia) was over 100 µM and the GI50 (NCI-H522 lung) was over 100 µM. It also gave a TGI (NCI-H522 lung) of over 100 µM, a GI50 (OVCAR-4 ovarian) of 23.8 µM and a TGI (OVCAR-4 ovarian) of 96.9 µM. It also gave a GI50 (SK-OV-3 ovarian) of 38.2 µM, a TGI (SK-OV-3 ovarian) of over 100 µM and a GI50 (EKVX NSCLC) of 41.6 µM. The TGI (EKVX NSCLC) was over 100 µM, the GI50 (HCT-116 colon) was over 100 µM and the TGI (HCT-116 colon) was over 100 µM. It also gave a GI50 (MDA-MB-231 breast) of 34.6 µM, a TGI (MDA-MB-231 breast) of over 100 µM and a GI50 (RPMI-8226 leukemia) of 32.5 µM. For the same molecule, the TGI (RPMI-8226 leukemia) was over 100 µM, the GI50 (TK-10 renal) was 22.2 µM and the TGI (TK-10 renal) was 91.4 µM.
